# Measured values taken from patent US9371320B2, “Heterocyclic compound” (TAKEDA PHARMACEUTICAL COMPANY LIMITED, priority 2012, dated 2016).
# Read-outs that look alike come from different tables or passages of the source.
# Columns and labels:
# [1] = target: T1, JAK1 (Homo sapiens, UniProt P23458); experiment: JAK1 enzyme inhibition test (LANCE method); assay type: biochemical; details: for inhibition at 1 µM: test compound 1 μM, read-out: Inhibitory rate (%) JAK1 1 μM; for inhibition at 10 µM: read-out: Inhibitory rate (%) JAK1 10 μM
# T1 construct: purchased Invitrogen
# T1 sequence (P23458 whole entry): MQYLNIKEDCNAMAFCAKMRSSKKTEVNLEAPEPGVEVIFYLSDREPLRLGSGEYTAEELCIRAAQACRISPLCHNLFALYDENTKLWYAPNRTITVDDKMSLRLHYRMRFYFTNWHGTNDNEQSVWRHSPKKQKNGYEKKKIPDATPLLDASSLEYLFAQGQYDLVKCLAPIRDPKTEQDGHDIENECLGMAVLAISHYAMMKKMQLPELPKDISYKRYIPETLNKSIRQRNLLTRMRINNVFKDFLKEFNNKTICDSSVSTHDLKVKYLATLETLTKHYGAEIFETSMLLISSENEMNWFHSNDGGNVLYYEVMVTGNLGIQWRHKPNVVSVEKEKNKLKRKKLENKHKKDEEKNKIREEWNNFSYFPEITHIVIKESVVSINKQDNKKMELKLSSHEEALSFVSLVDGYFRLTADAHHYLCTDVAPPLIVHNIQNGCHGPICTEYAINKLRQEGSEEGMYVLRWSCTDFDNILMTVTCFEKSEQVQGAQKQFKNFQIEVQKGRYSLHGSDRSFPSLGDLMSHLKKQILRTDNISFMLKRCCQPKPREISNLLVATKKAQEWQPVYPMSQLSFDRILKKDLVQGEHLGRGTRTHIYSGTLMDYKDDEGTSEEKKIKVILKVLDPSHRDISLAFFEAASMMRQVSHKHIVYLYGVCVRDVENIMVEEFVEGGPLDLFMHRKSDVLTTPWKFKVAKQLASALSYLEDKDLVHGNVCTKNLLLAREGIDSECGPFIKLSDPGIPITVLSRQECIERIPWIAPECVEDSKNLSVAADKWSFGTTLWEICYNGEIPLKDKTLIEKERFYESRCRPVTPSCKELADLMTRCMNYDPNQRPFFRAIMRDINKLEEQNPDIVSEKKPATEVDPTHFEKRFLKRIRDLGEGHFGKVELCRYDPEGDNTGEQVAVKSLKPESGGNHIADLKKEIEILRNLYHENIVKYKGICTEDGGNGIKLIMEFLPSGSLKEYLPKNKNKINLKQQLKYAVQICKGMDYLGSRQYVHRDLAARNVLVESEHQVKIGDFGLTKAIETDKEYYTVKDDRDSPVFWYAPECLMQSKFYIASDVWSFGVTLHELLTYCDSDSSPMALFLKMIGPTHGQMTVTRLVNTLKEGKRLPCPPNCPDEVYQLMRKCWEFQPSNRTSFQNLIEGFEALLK
# Outline: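 Reactions ran 1 h at room temperature in HEPES pH 7.5/MgCl2 buffer, with ATP solution at 150 μM and JAK1 and ULight peptide solutions at 187.5 ng/mL and 300 nM. Reactions were stopped with EDTA, and phosphorylation was read by Eu antibody time-resolved fluorescence at 665 nm. Inhibition was scaled to a no-enzyme control as 100%.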
# [2] = target: T2, Tyk2 (Homo sapiens, UniProt P29597); experiment: Tyk2 enzyme inhibition test (LANCE method); assay type: biochemical; details: for inhibition at 1 µM: test compound 1 μM, read-out: Inhibitory rate (%) Tyk2 1 μM
# T2 construct: purchased Invitrogen
# T2 sequence (P29597 whole entry): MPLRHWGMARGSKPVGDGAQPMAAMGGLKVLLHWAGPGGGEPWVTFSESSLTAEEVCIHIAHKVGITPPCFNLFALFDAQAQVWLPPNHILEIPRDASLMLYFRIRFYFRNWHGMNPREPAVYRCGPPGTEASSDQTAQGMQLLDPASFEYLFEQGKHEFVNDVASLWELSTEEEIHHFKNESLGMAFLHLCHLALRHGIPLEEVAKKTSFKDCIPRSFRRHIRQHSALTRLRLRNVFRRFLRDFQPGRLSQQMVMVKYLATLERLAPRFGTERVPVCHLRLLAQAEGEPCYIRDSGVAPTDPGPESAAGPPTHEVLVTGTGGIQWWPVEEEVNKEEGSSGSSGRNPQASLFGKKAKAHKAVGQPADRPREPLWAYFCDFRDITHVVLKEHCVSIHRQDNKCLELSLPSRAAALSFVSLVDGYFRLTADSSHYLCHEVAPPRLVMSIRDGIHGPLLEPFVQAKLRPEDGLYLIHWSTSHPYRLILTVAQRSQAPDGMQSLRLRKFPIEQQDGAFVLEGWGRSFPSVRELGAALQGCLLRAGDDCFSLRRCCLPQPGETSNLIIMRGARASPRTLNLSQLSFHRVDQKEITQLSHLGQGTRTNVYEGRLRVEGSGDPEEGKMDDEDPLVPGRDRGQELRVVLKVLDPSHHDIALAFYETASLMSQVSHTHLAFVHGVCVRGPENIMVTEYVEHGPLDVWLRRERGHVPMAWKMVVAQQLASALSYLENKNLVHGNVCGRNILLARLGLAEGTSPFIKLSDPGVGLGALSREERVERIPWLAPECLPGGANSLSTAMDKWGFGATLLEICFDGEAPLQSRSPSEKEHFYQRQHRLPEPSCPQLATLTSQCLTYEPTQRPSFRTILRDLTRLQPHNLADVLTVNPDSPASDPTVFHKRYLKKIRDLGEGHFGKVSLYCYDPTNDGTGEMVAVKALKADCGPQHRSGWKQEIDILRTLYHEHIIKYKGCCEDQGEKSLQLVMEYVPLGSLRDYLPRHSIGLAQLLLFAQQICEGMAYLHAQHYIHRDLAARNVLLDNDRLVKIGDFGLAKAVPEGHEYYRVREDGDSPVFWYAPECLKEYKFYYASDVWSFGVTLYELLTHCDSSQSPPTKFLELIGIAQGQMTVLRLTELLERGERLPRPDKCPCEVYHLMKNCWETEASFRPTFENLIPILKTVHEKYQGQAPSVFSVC
# Outline: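 LANCE TR-FRET read-out (ex 340/em 665 nm, 100 μs delay) of ULight-JAK1 phosphorylation, with no-enzyme wells as 100% inhibition. Reaction run 1 h at room temperature in pH 7.5 HEPES buffer; enzyme 375 ng/mL, substrate 300 nM and ATP 30 μM are solution concentrations before mixing.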
# [3] = test compound 10 μM (Ex. 182-220), beside Tyk2 1 μM
SMILES,inhibition at 1 µM [1],inhibition at 1 µM [2],"inhibition at 10 µM [1, 3]",inhibition at 10 µM ([1]; test compound 10 μM),"inhibition at 10 µM ([2]; test compound 10 μM, read-out: Inhibitory rate (%) Tyk2 10 μM)"
"CC(=O)N1CCN(c2ccc(-c3nn(-c4c(F)cccc4F)c4cc[nH]c(=O)c34)cc2)CC1 [Example 279, 3-(4-(4-acetylpiperazin-1-yl)phenyl)-1-(2,6-difluorophenyl)-1,5-dihydro-4H-pyrazolo[4,3-c]pyridin-4-one]",96%,99%,,,
"NC(=O)c1ccc(-c2nn(C3CCCC3)c3cc[nH]c(=O)c23)cc1 [Example 142, 4-(1-cyclopentyl-4-oxo-4,5-dihydro-1H-pyrazolo[4,3-c]pyridin-3-yl)benzamide]",96%,97%,,,
"Cn1cnc2cc(-c3nn(-c4c(F)cccc4F)c4c(Cl)c[nH]c(=O)c34)ccc21 [Example 226, 7-chloro-1-(2,6-difluorophenyl)-3-(1-methyl-1H-benzimidazol-5-yl)-1,5-dihydro-4H-pyrazolo[4,3-c]pyridin-4-one]",40%,98%,,,
"CNC(=O)c1cc(F)cc(-c2nn(-c3c(F)cccc3F)c3cc[nH]c(=O)c23)c1 [Example 274, 3-(1-(2,6-difluorophenyl)-4-oxo-4,5-dihydro-1H-pyrazolo[4,3-c]pyridin-3-yl)-5-fluoro-N-methylbenzamide]",34%,77%,,,
"O=C1CCCN1c1ccc(-c2nn(-c3c(F)cccc3F)c3c(Cl)c[nH]c(=O)c23)cc1 [Example 195, 7-chloro-1-(2,6-difluorophenyl)-3-(4-(2-oxopyrrolidin-1-yl)phenyl)-1,5-dihydro-4H-pyrazolo[4,3-c]pyridin-4-one]",,100%,79%,,
"O=c1[nH]ccc2c1c(-c1ccc(N3CCOCC3)cc1)nn2-c1c(F)cc(F)cc1F [Example 308, 3-(4-(morpholin-4-yl)phenyl)-1-(2,4,6-trifluorophenyl)-1,5-dihydro-4H-pyrazolo[4,3-c]pyridin-4-one]",91%,98%,,,
"O=c1[nH]cc(Cl)c2c1c(-c1ccc(N3CCOCC3)cc1)nn2-c1c(F)cccc1F [Example 161, 7-chloro-1-(2,6-difluorophenyl)-3-(4-(morpholin-4-yl)phenyl)-1,5-dihydro-4H-pyrazolo[4,3-c]pyridin-4-one]",79%,99%,,,
"CC(=O)N1CCC(c2ccc(-c3nn(-c4c(F)cccc4F)c4cc[nH]c(=O)c34)cc2)CC1 [Example 301, 3-(4-(1-acetylpiperidin-4-yl)phenyl)-1-(2,6-difluorophenyl)-1,5-dihydro-4H-pyrazolo[4,3-c]pyridin-4-one]",97%,99%,,,
"N#Cc1cccc(-c2nn(C3CCCC3)c3cc[nH]c(=O)c23)c1 [Example 202, 3-(1-cyclopentyl-4-oxo-4,5-dihydro-1H-pyrazolo[4,3-c]pyridin-3-yl)benzonitrile]",,87%,80%,,
"O=c1[nH]ccc2c1c(-c1cn[nH]c1)nn2C1CCCC1 [Example 204, 1-cyclopentyl-3-(1H-pyrazol-4-yl)-1,5-dihydro-4H-pyrazolo[4,3-c]pyridin-4-one]",,98%,98%,,
"CC(C)(C)NC(=O)c1cc(-c2cn(C3CCCC3)c3c(C#N)c[nH]c(=O)c23)cs1 [Example 123, N-tert-butyl-4-(7-cyano-1-cyclopentyl-4-oxo-4,5-dihydro-1H-pyrrolo[3,2-c]pyridin-3-yl)thiophene-2-carboxamide]",99%,99%,,,
"O=c1[nH]ccc2c1c(-c1csc(N3CCOCC3)c1)nn2-c1c(F)cccc1F [Example 234, 1-(2,6-difluorophenyl)-3-(5-(morpholin-4-yl)-3-thienyl)-1,5-dihydro-4H-pyrazolo[4,3-c]pyridin-4-one]",99%,99%,,,
"N#CCc1ccc(-c2cn(C3CCOCC3)c3cc[nH]c(=O)c23)cc1 [Example 25, (4-(4-oxo-1-(tetrahydro-2H-pyran-4-yl)-4,5-dihydro-1H-pyrrolo[3,2-c]pyridin-3-yl)phenyl)acetonitrile]",77%,71%,,,
"O=c1[nH]cc(Cl)c2c1c(-c1ccc(N3CCOCC3)c(F)c1)nn2-c1c(F)cccc1F [Example 206, 7-chloro-1-(2,6-difluorophenyl)-3-(3-fluoro-4-(morpholin-4-yl)phenyl)-1,5-dihydro-4H-pyrazolo[4,3-c]pyridin-4-one]",,100%,45%,,
"CC(C)(C)n1nc(NC(=O)c2ccccc2)c2c(=O)[nH]ccc21 [Example 265, N-(1-tert-butyl-4-oxo-4,5-dihydro-1H-pyrazolo[4,3-c]pyridin-3-yl)benzamide]",,,,21%,24%
"COC(=O)c1cc(-c2cn(C3CCCC3)c3c(C#N)c[nH]c(=O)c23)cs1 [Example 76, methyl 4-(7-cyano-1-cyclopentyl-4-oxo-4,5-dihydro-1H-pyrrolo[3,2-c]pyridin-3-yl)thiophene-2-carboxylate]",92%,99%,,,
"N#CCOc1ccc(-c2cn(C3CCCC3)c3c(C#N)c[nH]c(=O)c23)cc1 [Example 121, 3-(4-(cyanomethoxy)phenyl)-1-cyclopentyl-4-oxo-4,5-dihydro-1H-pyrrolo[3,2-c]pyridine-7-carbonitrile]",87%,97%,,,
"NC(=O)Cc1ccc(-c2nn(-c3c(F)cccc3F)c3cc[nH]c(=O)c23)cc1 [Example 72, 2-(4-(1-(2,6-difluorophenyl)-4-oxo-4,5-dihydro-1H-pyrazolo[4,3-c]pyridin-3-yl)phenyl)acetamide]",97%,99%,,,
"O=c1[nH]ccc2c1c(-c1ccsc1)cn2C1CCCC1 [Example 5, 1-cyclopentyl-3-(3-thienyl)-1,5-dihydro-4H-pyrrolo[3,2-c]pyridin-4-one]",97%,96%,,,

# Now from value to compound:
inhibition at 1 µM [1],inhibition at 1 µM [2],"inhibition at 10 µM [1, 3]",inhibition at 10 µM ([1]; test compound 10 μM),"inhibition at 10 µM ([2]; test compound 10 μM, read-out: Inhibitory rate (%) Tyk2 10 μM)",SMILES
46%,91%,,,,"N#Cc1c[nH]c(=O)c2c(-c3cccc(CC(N)=O)c3)cn(C3CCCC3)c12 [Example 110, 2-(3-(7-cyano-1-cyclopentyl-4-oxo-4,5-dihydro-1H-pyrrolo[3,2-c]pyridin-3-yl)phenyl)acetamide]"
94%,91%,,,,"O=c1[nH]ccc2c1c(-c1ccncc1)nn2C1CCCC1 [Example 44, 1-cyclopentyl-3-(pyridin-4-yl)-1,5-dihydro-4H-pyrazolo[4,3-c]pyridin-4-one]"
,98%,22%,,,"N#Cc1cc(-c2nn(-c3c(F)cccc3F)c3c(Cl)c[nH]c(=O)c23)ccc1N1CCOCC1 [Example 200, 5-(7-chloro-1-(2,6-difluorophenyl)-4-oxo-4,5-dihydro-1H-pyrazolo[4,3-c]pyridin-3-yl)-2-(morpholin-4-yl)benzonitrile]"
,97%,27%,,,"CNC(=O)c1ccc(-c2nn(-c3c(F)cccc3F)c3c(Cl)c[nH]c(=O)c23)cc1F [Example 216, 4-(7-chloro-1-(2,6-difluorophenyl)-4-oxo-4,5-dihydro-1H-pyrazolo[4,3-c]pyridin-3-yl)-2-fluoro-N-methylbenzamide]"
,100%,100%,,,"CC1(O)CCC(n2nc(-c3csc(C(N)=O)c3)c3c(=O)[nH]ccc32)CC1 (stereo not drawn) [Example 198, 4-(1-(4-hydroxy-4-methylcyclohexyl)-4-oxo-4,5-dihydro-1H-pyrazolo[4,3-c]pyridin-3-yl)thiophene-2-carboxamide]"
99%,98%,,,,"N#CCc1ccc(-c2nn(-c3c(F)cccc3F)c3cc[nH]c(=O)c23)cc1 [Example 39, (4-(1-(2,6-difluorophenyl)-4-oxo-4,5-dihydro-1H-pyrazolo[4,3-c]pyridin-3-yl)phenyl)acetonitrile]"
67%,94%,,,,"Cc1ccccc1-c1cn(-c2csc(C(N)=O)c2)c2c(=O)[nH]cc(C#N)c12 [Example 102, 4-(4-cyano-3-(2-methylphenyl)-7-oxo-6,7-dihydro-1H-pyrrolo[2,3-c]pyridin-1-yl)thiophene-2-carboxamide]"
94%,99%,,,,"N#Cc1c[nH]c(=O)c2c(-c3cnn(C4CC4)c3)cn(C3CCCC3)c12 [Example 138, 1-cyclopentyl-3-(1-cyclopropyl-1H-pyrazol-4-yl)-4-oxo-4,5-dihydro-1H-pyrrolo[3,2-c]pyridine-7-carbonitrile]"
90%,84%,,,,"O=c1[nH]ccc2c1c(-c1ccc(C(F)(F)F)cc1)nn2C1CCCC1 [Example 51, 1-cyclopentyl-3-(4-(trifluoromethyl)phenyl)-1,5-dihydro-4H-pyrazolo[4,3-c]pyridin-4-one]"
99%,100%,,,,"CCNC(=O)c1cc(-c2cn(C3CCCC3)c3c(C#N)c[nH]c(=O)c23)cs1 [Example 122, 4-(7-cyano-1-cyclopentyl-4-oxo-4,5-dihydro-1H-pyrrolo[3,2-c]pyridin-3-yl)-N-ethylthiophene-2-carboxamide]"
91%,100%,,,,"O=c1[nH]cc(Cl)c2c1c(-c1cn[nH]c1)nn2-c1c(F)cccc1F [Example 177, 7-chloro-1-(2,6-difluorophenyl)-3-(1H-pyrazol-4-yl)-1,5-dihydro-4H-pyrazolo[4,3-c]pyridin-4-one]"
